Measured values reported in patent publication EP2272817A1, “PAI-1 INHIBITOR” (Institute of Medicinal Molecular Design, Inc., priority 2008, dated 2009).

Biological target: recombinant human PAI-1 (Homo sapiens, UniProt P05121)
Assay: Test Example 2: Human PAI-1 Inhibitory Activity (pH 7.4 HEPES buffer, 10 minutes incubation with two-chain tPA)
Type: biochemical
Design: purchased Molecular Innovations, Inc
Conditions: read-out: Inhibition Rate of PAI-1 Activity (%)
Experimental: 0.1 M HEPES, 0.1 M NaCl. 1 mM EDTA. 0.1 % Polyethylene glycol 8,000 (Hampton Research Corporation),
2 mM Dimethyldecylphoshine oxide [Apo-10] (Fluka Corporation)

Sequence of recombinant human PAI-1 (P05121 24-402): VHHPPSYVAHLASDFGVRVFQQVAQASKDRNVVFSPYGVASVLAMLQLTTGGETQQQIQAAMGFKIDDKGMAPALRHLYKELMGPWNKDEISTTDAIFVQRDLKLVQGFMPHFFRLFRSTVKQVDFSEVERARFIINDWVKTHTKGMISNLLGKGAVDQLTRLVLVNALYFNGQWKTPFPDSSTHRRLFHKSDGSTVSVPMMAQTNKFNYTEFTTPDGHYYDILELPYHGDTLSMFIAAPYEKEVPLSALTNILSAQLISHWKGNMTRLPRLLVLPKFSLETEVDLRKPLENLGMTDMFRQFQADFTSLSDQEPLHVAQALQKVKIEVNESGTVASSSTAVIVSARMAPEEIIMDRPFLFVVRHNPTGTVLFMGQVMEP

| inhibition at 0.1 µM [%] | inhibition at 0.3 µM [%] | inhibition at 1 µM [%] | inhibition at 3 µM [%] | inhibition at 10 µM [%] | inhibition at 25 µM [%] | Structure (SMILES) |
| --- | --- | --- | --- | --- | --- | --- |
| 2 | 5 | 32 | 98 |  |  | CCCCCOc1ccc(-c2ccc(OC(F)(F)F)cc2)cc1N(CC(=O)O)C(=O)CCCc1ccccc1 [Compound 682] |
| 17 | 37 | > 99 | 92 |  |  | O=C(O)C(=O)N(CCCCc1ccccc1)c1cc(-c2ccc(OC(F)(F)F)cc2)ccc1OC1C2CC3CC(C2)CC1C3 (centres unmarked) [Compound 634] |
| 0 | 16 | 95 | > 99 |  |  | CC(C)(C)c1ccc(Sc2cc(-c3ccc(OC(F)(F)F)cc3)ccc2C(=O)C(=O)O)cc1 [Compound 548] |
| 12 | 0 | 12 | 83 |  |  | CC(Oc1cc(-c2ccc(OC(F)(F)F)cc2)ccc1CCC(=O)O)c1ccccc1 (centres unmarked) [Compound 501] |
| 0 | 4 | 92 | > 99 |  |  | CC(C)(C)c1ccc(CCc2cc(-c3ccc(OC(F)(F)F)cc3)ccc2OCC(=O)O)cc1 [Compound 551] |
| 6 | 10 | 66 | > 99 |  |  | CC(C)c1ccccc1Oc1cc(-c2ccc(OC(F)(F)F)cc2)ccc1CCC(=O)O [Compound 491] |
|  |  | 0 | 20 | 36 | 46 | CC(C)(C)c1ccc(CN(C(=O)CCCC(=O)O)c2ccc(-c3ccc(OC(F)(F)F)cc3)cc2)cc1 [Compound 604] |
|  |  | 49 | 94 | 97 | 86 | CC(C)(C)c1ccc(N(CC(=O)O)c2ccccc2Oc2ccc(OC(F)(F)F)cc2)cc1 [Compound 610] |
|  |  | 0 | 24 | 78 | > 99 | CN(C(=O)c1ccc(N(Cc2ccc(C(C)(C)C)cc2)C(=O)C(=O)O)cc1)c1ccc(OC(F)(F)F)cc1 [Compound 618] |

Continued, molecule first:

| Structure (SMILES) | inhibition at 0.1 µM [%] | inhibition at 0.3 µM [%] | inhibition at 1 µM [%] | inhibition at 3 µM [%] | inhibition at 10 µM [%] | inhibition at 25 µM [%] |
| --- | --- | --- | --- | --- | --- | --- |
| CCCCCOc1cc(-c2cccc(C(F)(F)F)c2)ccc1N(CCCCc1ccccc1)C(=O)C(=O)O [Compound 377] | 1 | 23 | 83 | 94 |  |  |
| CCCCOc1ccc(-c2ccc(OC(F)(F)F)cc2)cc1C=CC(=O)O [Compound 405] |  |  | 14 | 63 | > 99 | 95 |
| CCC(CC)Oc1ccc(-c2ccc(OC(F)(F)F)cc2)cc1N(CCCCc1ccccc1)C(=O)C(=O)O [Compound 369] | 0 | 8 | 70 | 95 |  |  |
| Cc1cc(C)cc(Oc2cc(-c3ccc(C(C)(C)C)cc3)ccc2CCC(=O)O)c1 [Compound 499] | 15 | 14 | 77 | 98 |  |  |
| CCCCCCOc1ccc(-c2ccc(OC(F)(F)F)cc2)cc1OC(CCCCCC)C(=O)O (centres unmarked) [Compound 429] | 7 | 9 | 93 | 95 |  |  |
| CCCCCCCCCCOc1ccc(-c2ccc(OC(F)(F)F)cc2)cc1N(CCCCc1ccccc1)C(=O)C(=O)O [Compound 365] | 41 | 97 | 97 | 92 |  |  |
| O=C(O)/C=C/c1ccc(-c2ccc(OC(F)(F)F)cc2)cc1Oc1ccc(OC(F)(F)F)cc1 [Compound 477] | 7 | 21 | 60 | > 99 |  |  |
| CCCCCCC(Oc1cc(-c2ccc(OC(F)(F)F)cc2)ccc1Oc1ccc(OC(F)(F)F)cc1)C(=O)O (centres unmarked) [Compound 326] | 0 | 28 | 94 | 94 |  |  |
